From article PMC10054465, “Design, Synthesis, and Antiviral Activities of New Benzotriazole-Based Derivatives” (Pharmaceuticals, 2023) come the findings set out here.

The subject of one series is YFV. The series can be described thus: microbe, parasite or virus in culture. The settings on record: Yellow fever virus, BHK-21, read-out: YFV EC50. Format: cell-based.
A further series concerns CVB5 virions. The series is described as follows: Virucidal activity assay. The settings on record: 20 µM, 4 °C or 37 °C. The format is cell-based, human enterovirus B (coxsackievirus B5).
The test system of another series is Sb-1. The series can be described thus: microbe, parasite or virus in culture. Format: cell-based, human enterovirus C (poliovirus type-1). Conditions: Enterovirus C, Vero 76, read-out: Sb-1 EC50.
The next series relates to BVDV. The series is described as follows: microbe, parasite or virus in culture. Format: cell-based. Conditions: Bovine viral diarrhea virus isolates and strains, MDBK, read-out: BVDV EC50.
The subject of series [1] is CVB5. The series can be described thus: Time of addition assay. Format: cell-based, human enterovirus B (coxsackievirus B5). The settings on record: 20 µM.
The nature of series [2]: Cytotoxicity in mock-infected BHK-21 monolayers (MTT). Conditions: Syrian hamster (Mesocricetus auratus), BHK-21 cell monolayers, mock-infected.
The test system of the next series is VV. The series can be described thus: microbe, parasite or virus in culture. The format is cell-based. Conditions: Orthopoxvirus vaccinia, Vero 76, read-out: VV EC50.
Series [3] in a line: Cytotoxicity in mock-infected Vero-76 monolayers. The settings on record: African green monkey (Cercopithecus aethiops).
The test system of series [4] is CVB5. The series can be described thus: microbe, parasite or virus in culture. Format: cell-based, human enterovirus B (coxsackievirus B5). Conditions: Enterovirus B, CVB5, Vero 76, read-out: CVB5 EC50.
The subject of a further series is HSV-1. The series can be described thus: microbe, parasite or virus in culture. The settings on record: Human alphaherpesvirus 1, Vero 76, read-out: HSV-1 EC50. The format is cell-based, human herpesvirus 1.
For the next series, the system named is VSV. The series is described as follows: microbe, parasite or virus in culture. The format is cell-based. Conditions: Vesicular stomatitis virus, Vero 76, read-out: VSV EC50.
Series [5] relates to CVB5. The series is described as follows: Cell pre-treatment assay (viral yield by plaque assay). The format is cell-based, human enterovirus B (coxsackievirus B5). Conditions: Vero-76 pre-treated 2 h with 20 µM, then CVB5; not treated control 3 × 10^5 PFU/mL.
In the next series the test system is RSV. The series can be described thus: microbe, parasite or virus in culture. The settings on record: human respiratory syncytial virus, Vero 76, read-out: RSV EC50. Format: cell-based.
The test system of another series is Reo-1. The series can be described thus: microbe, parasite or virus in culture. Format: cell-based, Reovirus type-1. The settings on record: Reovirus sp., BHK-21, read-out: Reo-1 EC50.
The nature of series [6]: Cytotoxicity in mock-infected MDBK cells (MTT). Conditions: cattle (Bos taurus), mock-infected.
Setting [7] is: African green monkey (Cercopithecus aethiops).

Structures are written as SMILES. “Also recorded” adds a separate entry of the source. Read-outs that look alike come from different tables or passages of the source. Where only a bound is given, the exact number is not on record here.

Take `CC(C)(C)C(=O)Nc1ccc(Cn2nnc3c(F)cccc32)cc1` [18e, N-(4-((4-fluoro-1H-benzo[d][1,2,3]triazol-1-yl)methyl)phenyl)pivalamide]: the “TEER values versus control (in words)” value with Caco-2 cell monolayers is reported as “did not significantly differ from control values”. Moreover, the EC50 is above 100 µM with YFV; above 100 µM in the series on Sb-1; above 100 µM in the series on BVDV; above 100 µM in the series with VV; 12.4 ± 0.6 µM with CVB5 [4]; 52 ± 9.2 µM in the series on HSV-1. The results for the EC50 with VSV, with RSV and in the series on Reo-1 were above 100 µM, above 9 µM and above 100 µM, respectively. Besides, the “virucidal effect on CVB5 titer (in words)” value with CVB5 virions was “no virucidal activity; also recorded: no difference between the titers”. In addition, the “antiviral effect, compound added during the infection period (in words)” value in the series with CVB5 [1] (Vero-76, CVB5 m.o.i. 1) was “antiviral effect was kept”. Moreover, in the series with CVB5 [1] (Vero-76, CVB5 m.o.i. 1, post infection), the “titer reduction, compound added during subsequent steps of the replication cycle (in words)” value was “No titer reduction”. In addition, the CC50 in [2] is above 100 µM; in [3] (Vero-76 cell monolayers, mock-infected) it was above 100 µM; in [3] (Vero-76 cells), 9 µM; in series [6], above 100 µM. Besides, the “viral load after cell pre-treatment” value in the series on CVB5 [5] is on record as 7× 10^4 PFU/mL. Moreover, the “% Late apoptotic cells” value in the series on Vero-76 cells is 8.3 ± 0.34%; in the series on Vero-76 cells (setting [7]) it was 1.03 ± 0.34%. Also, the “% Live cells” value in the series on Vero-76 cells is 72.87 ± 1.21%; in the series on Vero-76 cells (setting [7]), 94.45 ± 2.55%. The “% Necrotic cells” value in the series on Vero-76 cells is recorded as 12.44 ± 2.35%; with Vero-76 cells (setting [7]) it was 4.12 ± 2.3%.

As a reminder, the EC50 is the midpoint of the concentration-response curve. As usually defined, the CC50 is the concentration at which the toxic effect on the cells reaches its halfway point.
